Patent publication US20140005103A1, “SULFONAMIDE DERIVATIVES AND METHODS OF USE THEREOF FOR IMPROVING THE PHARMACOKINETICS OF A DRUG” (Merck, Sharp & Dohme Corp., priority 2012, published 2014)

What was measured:
[1] = target: T1, CYP2C9 (Homo sapiens, UniProt P11712); assay: Cocktail CYP assay, diclofenac 4'-hydroxylation; assay type: in vitro ADME; conditions: human liver microsomes, 5 μM diclofenac; test concentrations up to 10 μM
T1 construct: 0.1 mg/mL protein human liver microsomes (BD Gentest); tissue BD Gentest; host or cells: human liver microsomes
T1 sequence (P11712 whole entry): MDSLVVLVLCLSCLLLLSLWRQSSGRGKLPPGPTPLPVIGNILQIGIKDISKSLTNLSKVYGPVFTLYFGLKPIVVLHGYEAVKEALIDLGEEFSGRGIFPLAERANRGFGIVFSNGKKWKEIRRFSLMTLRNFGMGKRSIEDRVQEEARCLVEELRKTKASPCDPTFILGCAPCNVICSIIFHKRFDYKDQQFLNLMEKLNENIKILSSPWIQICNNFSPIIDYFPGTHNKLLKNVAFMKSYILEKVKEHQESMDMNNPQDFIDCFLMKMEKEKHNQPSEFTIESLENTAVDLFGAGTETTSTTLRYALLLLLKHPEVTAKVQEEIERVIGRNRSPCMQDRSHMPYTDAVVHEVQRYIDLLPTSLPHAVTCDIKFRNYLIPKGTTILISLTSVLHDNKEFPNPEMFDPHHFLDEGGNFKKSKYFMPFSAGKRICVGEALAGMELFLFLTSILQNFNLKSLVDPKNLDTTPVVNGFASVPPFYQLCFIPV
Method: (§1) Determination of IC50 in a Cocktail Assay for CYPs 1A2, 2C9, 2C19, 2D6 and 3A4
(§2) This assay was performed in a standard 96-well plate design. IC50 values were calculated from the percent inhibition observed for each test compound at 6 concentrations (for example, 0.0032, 0.016, 0.08, 0.4, 2 and 10 μM). The incubation substrate mix contains 10 μM phenacetin (1A2), 5 μM diclofenac (2C9), 30 μM mephenyloin (2C19), 5 μM dextromethorphan (2D6) and 2 μM midazolam (3A4), 0.1 mg/mL protein human liver microsomes (BD Gentest), 1 mM NAPDH, 3.3 mM MgCl2 and 100 mM potassium phosphate buffer (pH 7.4). The production of the metabolite of each probe substrate was determined after incubation for 10 min at 37° C. Quantitation of the metabolite peak area ratio against an internal standard (tolbutamide) was determined by LC/MS/MS analysis following acetonitrile treatment of the incubations.
(§3) Samples were analyzed in the MRM mode with a SCIEX API-4000 mass spectrometer (Applied Biosystems, Foster City, Calif.), with a Shimadzu LC-20 AD pump (Shimadzu corporation, Kyoto, JP) and a CTC PAL autosampler (Agilent Technologies, Switzerland). A Phenomenex, Luna, […], 100 A, 2.00×30 mm HPLC column was used for the separation. The mobile phases were: (A) 0.1% formic acid in water and (B) 0.1% formic acid in acetonitrile. The binary gradient was as follows.
(§4) The peak area ratio of the analyte to the internal standard was used to quantify the metabolite. The values of peak area ratios in the presence of test compound were compared to those of maximum or minimum controls and were expressed as % inhibition by interpolating between the maximum and minimum peak area ratios. Incubations with no inhibitor were defined as the maxima.
(§5) The following equation was used to calculate the % inhibition:
(§6) [1−[(X−Low control)/(High control−Low control)]]*100
(§7) For the IC50 calculation, SigmaPlot was used to plot the mean % inhibition versus the test compound concentrations and for non-linear regression analysis of the data. Depending on the range of data points defining the inhibition curve, the data may have been fit to the 4-parameter logistic equation.

[2] = target: T2, CYP2D6 (Homo sapiens, UniProt P10635); assay: Cocktail CYP assay, dextromethorphan O-demethylation; assay type: in vitro ADME; conditions: human liver microsomes, 5 μM dextromethorphan; test concentrations up to 10 μM
T2 construct: 0.1 mg/mL protein human liver microsomes (BD Gentest); tissue BD Gentest; host or cells: human liver microsomes
T2 sequence (P10635 whole entry): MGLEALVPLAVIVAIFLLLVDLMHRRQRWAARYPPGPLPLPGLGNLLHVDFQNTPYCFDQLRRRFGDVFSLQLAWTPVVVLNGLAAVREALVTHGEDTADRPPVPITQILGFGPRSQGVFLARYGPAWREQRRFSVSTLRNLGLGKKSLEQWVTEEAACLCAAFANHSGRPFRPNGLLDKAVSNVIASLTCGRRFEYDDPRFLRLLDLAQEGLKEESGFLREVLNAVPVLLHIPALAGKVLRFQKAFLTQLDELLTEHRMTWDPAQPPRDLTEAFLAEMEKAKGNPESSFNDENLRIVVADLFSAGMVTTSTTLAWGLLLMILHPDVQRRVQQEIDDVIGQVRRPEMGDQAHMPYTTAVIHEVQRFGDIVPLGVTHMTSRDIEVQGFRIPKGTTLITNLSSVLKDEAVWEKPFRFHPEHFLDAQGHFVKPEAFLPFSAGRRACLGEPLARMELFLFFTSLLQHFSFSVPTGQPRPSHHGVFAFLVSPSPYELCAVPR
Method: as §1, §2, §3, §4, §5, §6, §7

[3] = target: T3, human CYP11B2 (Homo sapiens, UniProt P19099); assay: IC50 vs CYP11B2 by aldosterone synthesis in V79 cells; assay type: cell-based; conditions: V79 cells expressing human CYP11B2, 750 nM DOC, aldosterone HTRF; test concentrations 0.5-10000 nM
T3 construct: expressed in transfected cells
T3 sequence (P19099 25-503): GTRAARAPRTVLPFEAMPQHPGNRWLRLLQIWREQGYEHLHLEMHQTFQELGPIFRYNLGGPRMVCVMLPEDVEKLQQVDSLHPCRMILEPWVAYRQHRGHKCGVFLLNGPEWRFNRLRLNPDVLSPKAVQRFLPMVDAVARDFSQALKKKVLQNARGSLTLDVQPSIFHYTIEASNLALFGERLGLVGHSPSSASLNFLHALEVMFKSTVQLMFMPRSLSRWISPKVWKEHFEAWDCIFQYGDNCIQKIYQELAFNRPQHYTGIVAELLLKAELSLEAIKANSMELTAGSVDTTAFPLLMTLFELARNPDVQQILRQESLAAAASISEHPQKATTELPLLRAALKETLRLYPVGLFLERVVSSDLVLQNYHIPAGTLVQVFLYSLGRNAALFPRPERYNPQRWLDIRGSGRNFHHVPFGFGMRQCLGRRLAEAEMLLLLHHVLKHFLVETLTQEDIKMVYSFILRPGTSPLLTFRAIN
Method: Determination of IC50 vs CYP11B1/CYP11B2 by Measurement of Cortisol/Aldosterone Synthesis
This assay was performed in a standard 384-well plate design using cultured V79 cells stably expressing human CYP11B1 or human CYP11B2. Test compounds at 10 concentrations (for example, 10000, 3333.3, 1111.1, 370.4, 123.5, 41.2, 13.7, 4.6, 1.5 and 0.5 nM) were added in 384-well plate after the cell-seeding procedure. The incubation substrate contains 1500 nM RSS for CYP11B1 assay/750 nM DOC for CYP11B2 assay. The
Cortisol/Aldosterone production of cell culture supernatant was determined by Cortisol/Aldosterone HTRF kit after for about 15 hours incubation at RT (protect from light). IC50 values were calculated from the percent inhibition observed for each test compound at 10 concentrations.
The assay plate was read using Envision (Perkin Elmer, Waltham, Mass.) at 665 nm and 590 nm (using Filter Barcode of 217#, 205#; Mirror Barcode of 446#).
Data are analyzed using Assay Data Analyzer. All ratio data (665 nm/590 nm) are back calculated according to the standard curve, resulting in Cortisol/Aldosterone concentrations. IC50 values are reported as the Inflection Point (IP) of a four parameter fit of the titration data.
as §5
% Activity=100×{1−(Sample_back calculated Cortisol/Aldosterone concentration−LC_back calculated Cortisol/Aldosterone concentration)/(HC_back calculated Cortisol/Aldosterone concentration−LC_back calculated Cortisol/Aldosterone concentration)}

Structure (SMILES) | IC50 [1] | IC50 [2] | IC50 [3]
C[C@H](c1ccc(F)cc1)n1cnnc1CN1CCN(S(=O)(=O)c2cnc(N3CCN4C[C@H](O)C[C@H]4C3)s2)CC1 [Compound 42] | > 10 µM | > 10 µM | > 10 µM
C[C@H](c1ccc(F)cc1)n1cncc1C1COCC2CN(S(=O)(=O)c3cnc(Nc4ccccn4)s3)CCN21 (stereo partly drawn) [Compound 40] | 0.357 µM | 2.89 µM | 3.9 µM
C[C@H](c1ccc(F)cc1)n1cncc1CN1CCN(S(=O)(=O)c2cnc(N3CCNCC3)s2)CC1 [Compound 1] | 2.3 µM | 2.78 µM | 1.72 µM
CC(c1cncn1[C@H](C)c1ccc(F)cc1)N1CCN(S(=O)(=O)c2cnc(N3CCN4C[C@H](O)C[C@H]4C3)s2)CC1 (stereo partly drawn) [Compound 37] | 6.1 µM | > 10 µM | 0.193 µM
C[C@H](c1ccc(F)cc1)n1cncc1CN1CCN(S(=O)(=O)c2cnc(N3CCN4C[C@H](O)C[C@H]4C3=O)s2)CC1 [Compound 18] | 2.3 µM | 5 µM | 4.58 µM
C[C@H](c1ccc(F)cc1)n1cncc1CN1CCN(S(=O)(=O)c2cncc(N3CCNCC3)c2)CC1 [Compound 29] | > 10 µM | > 10 µM | 4.37 µM
CC1CN(c2ncc(S(=O)(=O)N3CCN(Cc4cncn4[C@H](C)c4ccc(F)cc4)CC3)s2)C[C@@H]2C[C@@H](O)CN12 (stereo partly drawn) [Compound 23] | 5.01 µM | 4.65 µM | 4.57 µM
C[C@H](c1ccc(F)cc1)n1cncc1CN1CCN(S(=O)(=O)c2cnc(N3CCC4(CC3)CNC(=O)N4)s2)CC1 [Compound 3] | 1.47 µM | 2.7 µM | > 10 µM
C[C@H](c1ccc(F)cc1)n1cncc1CN1CCN(S(=O)(=O)c2cnc(N3CCN4C(=O)OC[C@H]4C3)s2)CC1 [Compound 26] | 4.27 µM | > 10 µM | 9.22 µM
C[C@H](c1ccc(F)cc1)n1cncc1CN1CCN(S(=O)(=O)c2cnc(N3CCC(S(C)(=O)=O)C3)s2)CC1 (stereo partly drawn) [Compound 8] | 3.5 µM | > 10 µM | 4 µM
C[C@H](c1ccc(F)cc1)n1cncc1CN1CCN(S(=O)(=O)c2cnc(N3CC(=O)N4C[C@H](O)C[C@H]4C3)s2)CC1 [Compound 16] | 9.12 µM | > 10 µM | 4.6 µM
C[C@H](c1ccc(F)cc1)n1cncc1CN1CCN(S(=O)(=O)c2cnc(N3CCN4C[C@H](O)CC4(C)C3)s2)CC1 (stereo partly drawn) [Compound 24] | 1.35 µM | 3.2 µM | > 10 µM
C[C@H](c1ccc(F)cc1)n1cncc1CN1CCN(S(=O)(=O)c2cnc(N3CCN4C[C@H](O)C[C@@H]4C3)s2)CC1 [Compound 6] | 1.94 µM | > 10 µM | 3.88 µM
C[C@H](c1ccc(F)cc1)n1cncc1CN1CCN(S(=O)(=O)c2cnc(N3CCN4CCC(O)[C@H]4C3)s2)CC1 (stereo partly drawn) [Compound 27] | 1.77 µM | 3.85 µM | 2.27 µM
C[C@H](c1ccc(C#N)cc1)n1cncc1CN1CCN(S(=O)(=O)c2cnc(Nc3ccc(C(F)(F)F)cn3)s2)CC1 [Compound 4] | 1.84 µM | 5.25 µM | 0.445 µM
C[C@H](c1ccc(F)cc1)n1cncc1CN1CCN(S(=O)(=O)c2cnc(N3CCN4C[C@H](O)C[C@H]4C3)s2)CC1 [Compound 5] | 4.46 µM | > 10 µM | 4.77 µM

Structure (SMILES) | IC50 [1] | IC50 [2] | IC50 [3]
CC1CN2C[C@H](O)C[C@H]2CN1c1ncc(S(=O)(=O)N2CCN(Cc3cncn3[C@H](C)c3ccc(F)cc3)CC2)s1 (single isomer, unassigned) [Compound 22] | 5.7 µM | 3.65 µM | 1.35 µM
C[C@H](c1ccc(F)cc1)n1cncc1CN1CCN(S(=O)(=O)c2cnc(N3CCC(N)(CO)CC3)s2)CC1 [Compound 25] | 9.73 µM | 8.35 µM | > 10 µM
C[C@H](c1ccc(F)cc1)n1cncc1CN1CCN(S(=O)(=O)c2cnc(NCC(F)CN)s2)CC1 (stereo partly drawn) [Compound 17] | 2.45 µM | 3.38 µM | 9.35 µM
Cc1ccc(C2(n3cncc3CN3CCN(S(=O)(=O)c4cnc(N5CCN(C)CC5)s4)CC3)CC2)nc1 [Compound 31] | > 10 µM | > 10 µM | > 10 µM
C[C@H](c1ccc(F)cc1)n1cncc1CN1CCN(S(=O)(=O)c2cnc(N3CCN(C4CCN(C)CC4)CC3)s2)CC1 [Compound 9] | 4.12 µM | > 10 µM | 3.92 µM
C[C@H](c1ccc(F)cc1)n1cncc1CN1CCN(S(=O)(=O)c2cnc(N3CCN(C)CC3)s2)CC1 [Compound 2] | 3.22 µM | 8.01 µM | 0.077 µM
CN1CCN(c2ncc(S(=O)(=O)N3CCN(Cc4cncn4CCOc4ccc(F)cn4)CC3)s2)CC1 [Compound 33] | > 10 µM | 4.8 µM | 1.61 µM
CN1CCN(c2ncc(S(=O)(=O)N3CCN(Cc4cncn4CCOc4ccc(Cl)cc4)CC3)s2)CC1 [Compound 32] | 1.56 µM | 1.3 µM | 1.03 µM
C[C@H](c1ccc(F)cc1)n1cncc1CN1CCN(S(=O)(=O)c2cnc(N3CCN4C[C@H](O)CC[C@H]4C3)s2)CC1 [Compound 19] | 1.41 µM | 7.01 µM | 1.93 µM
C[C@H](c1ccc(F)cc1)n1cncc1C1C(=O)OCC2CN(S(=O)(=O)c3cnc(Nc4ccc(C(F)(F)F)cn4)s3)CCN21 (stereo partly drawn) [Compound 39] | 4.7 µM | 2.18 µM | 2.47 µM
C[C@H](c1ccc(F)cc1)n1cncc1CN1CCN(S(=O)(=O)c2cnc(N3CC[C@@H](N)[C@H](F)C3)s2)CC1 [Compound 11] | 2.15 µM | > 10 µM | 3.39 µM
C[C@H](c1ccc(F)cc1)n1cncc1CN1CCN(S(=O)(=O)c2cnc(N3CC[C@@H]4NCCO[C@H]4C3)s2)CC1 [Compound 15] | 2.46 µM | 3.56 µM | 3.62 µM
C[C@H](c1ccc(F)cc1)n1cncc1CN1CCN(S(=O)(=O)c2cnc(N3CCNCC3)cn2)CC1 [Compound 30] | > 10 µM | 4.92 µM | 2.9 µM
C[C@H](c1ccc(F)cc1)n1cncc1CN1CCN(S(=O)(=O)c2cnc(N3CC[C@@H](N4CCOCC4)[C@H](F)C3)s2)CC1 [Compound 20] | 4.5 µM | > 10 µM | 2.24 µM
C[C@H](c1ccc(F)cc1)n1cncc1CN1CCN(S(=O)(=O)c2cnc(N3CCN4C[C@@H](CN)C[C@H]4C3)s2)CC1 [Compound 10] | 2.68 µM | > 10 µM | > 10 µM
C[C@H](c1ccc(F)cc1)n1cncc1CN1CCN(S(=O)(=O)c2cnc(N3C[C@@H]4C[C@@H](O)CN4C[C@@H]3C)s2)CC1 [Compound 21] | 1.16 µM | 6.18 µM | > 10 µM
